Series [1] can be described thus: Equilibrium shake flask solubility assay, thermodynamic solubility in water pH 6.5. The format is physicochemical. As to conditions: phosphate buffer, pH 6.5, aqueous buffer, thermodynamic from solid, phosphate buffer pH 6.5, 24 h, room temperature. The protocol: 4. Equilibrium Shake Flask Solubility Assay:
4a) Thermodynamic Solubility in Water
The thermodynamic solubility of compounds in water was determined by an equilibrium shake flask method (see for example: E. H. Kerns, L. Di: Drug-like Properties: Concepts, Structure Design and Methods, 276-286, Burlington, Mass., Academic Press, 2008). A saturated solution of the drug was prepared and the solution was mixed for 24 h to ensure that equilibrium was reached. The solution was centrifuged to remove the insoluble fraction and the concentration of the compound in solution was determined using a standard calibration curve. To prepare the sample, 2 mg solid compound was weighed in a 4 mL glass vial. 1 mL phosphate buffer pH 6.5 was added. The suspension was stirred for 24 hrs at room temperature. The solution was centrifuged afterwards. To prepare the sample for the standard calibration, 2 mg solid sample was dissolved in 30 mL acetonitrile. After sonification the solution was diluted with water to 50 mL. Sample and standards were quantified by HPLC with UV-detection. For each sample two injection volumes (5 and 50 μl) in triplicates were made. Three injection volumes (5 μl, 10 μl and 20 μl) were made for the standard.
(§1) The areas of sample- and standard injections as well as the calculation of the solubility value (in mg/l) were determined by using HPLC software (Waters Empower 2 FR).

A short description of series [2]: Equilibrium shake flask solubility assay, thermodynamic solubility in citrate buffer pH 4. The conditions noted are these: citrate buffer, pH 4, aqueous buffer, thermodynamic from solid, citrate buffer pH 4, 24 h, room temperature; read-out: Solubility in aqueous Citrate buffer pH4. The format is physicochemical. The protocol:
4b) Thermodynamic Solubility in Citrate Buffer pH 4
Thermodynamic solubility was determined by an equilibrium shake flask method [Literature: Edward H. Kerns and Li Di (2008) Solubility Methods in: Drug-like Properties: Concepts, Structure Design and Methods, p276-286. Burlington, Mass.: Academic Press].
A saturated solution of the drug was prepared and the solution was mixed for 24 h to ensure that equilibrium has been reached. The solution was centrifuged to remove the insoluble fraction and the concentration of the compound in solution was determined using a standard calibration curve.
To prepare the sample, 1.5 mg solid compound was weighed in a 4 ml glass vial. 1 ml Citrate buffer pH 4 was added. The suspension was put on a stirrer and mixed for 24 hrs at room temperature. The solution was centrifuged afterwards. To prepare the sample for the standard calibration, 0.6 mg solid sample was dissolved in 19 ml acetonitrile/water 1:1. After sonification the solution was filled up with acetonitrile/water 1:1 to 20 ml.
Sample and standards were quantified by HPLC with UV-detection. For each sample two injection volumes (5 and 50 μl) in triplicates were made. Three injection volumes (5 μl, 10 μl and 20 μl) were made for the standard.
as §1

The nature of series [3]: Caco-2 permeation assay. It is filed as in vitro ADME, human. As to conditions: human, Caco-2, pH 7.2, Caco-2, 2 μM test compound. Here is the method:
5. Caco-2 Permeation Assay:
Caco-2 cells (purchased from DSMZ Braunschweig, Germany) were seeded at a density of 4.5×10^4 cells per well on 24 well insert plates, 0.4 μm pore size, and grown for 15 days in DMEM medium supplemented with 10% fetal bovine serum, 1% GlutaMAX (100×, GIBCO), 100 U/mL penicillin, 100 μg/mL streptomycin (GIBCO) and 1% non essential amino acids (100 ×). Cells were maintained at 37° C. in a humified 5% CO2 atmosphere. Medium was changed every 2-3 day. Before running the permeation assay, the culture medium was replaced by a FCS—free hepes-carbonate transport buffer (pH 7.2). For assessment of monolayer integrity the transepithelial electrical resistance (TEER) was measured. Test compounds were predissolved in DMSO and added either to the apical or basolateral compartment in final concentration of 2 μM in transport buffer. Before and after 2 h incubation at 37° C. samples were taken from both compartments. Analysis of compound content was done after precipitation with methanol by LC/MS/MS analysis. Permeability (Papp) was calculated in the apical to basolateral (A→B) and basolateral to apical (B→A) directions. The apparent permeability was calculated using following equation: Papp=(Vr/Po)(1/S)(P2/t)
Where Vr is the volume of medium in the receiver chamber, Po is the measured peak area or height of the test drug in the donor chamber at t=o, S the surface area of the monolayer, P2 is the measured peak area of the test drug in the acceptor chamber after 2 h of incubation, and t is the incubation time. The efflux ratio basolateral (B) to apical (A) was calculated by dividing the Papp B-A by the Papp A-B. In addition the compound recovery was calculated. The following reference compounds were used for the classification of the permeability class: Antipyrine, Pyrazosin, Verapamil, Fluvastatin, Cimetidine, Ranitidine, Atenolol, Sulfasalazine.

For series [4], the target named is T1, human carbonic anhydrase-1 (Homo sapiens, UniProt P00915).
T1 construct: purchased Sigma C4396
As to the kind of experiment: Carbonic anhydrase assay, carbonic anhydrase-1. The conditions noted are these: read-out: Inhibition of Carbonic anhydrase-1 IC50. The format is biochemical. Here is the method:
(§2) 6. Carbonic Anhydrase Assay
(§3) The principle of the assay is based on the hydrolysis of 4-nitrophenyl acetate by carbonic anhydrases (Pocker & Stone, Biochemistry, 1967, 6, 668), with subsequent photometric determination of the dye product 4-nitrophenolate at 400 nm by means of a 96-channel spectral photometer.
(§4) 2 μL of the test compounds, dissolved in DMSO (100-fold final concentration), in a concentration range of 0.03-10 μmol/L (final), was pipetted as quadruplicates into the wells of a 96-hole microtiter plate. Wells that contained the solvent without test compounds were used as reference values (1. Wells without carbonic anhydrase for correction of the non-enzymatic hydrolysis of the substrate, and 2. Wells with carbonic anhydrase for determining the activity of the non-inhibited enzyme).
(§5) 188 μL of assay buffer (10 mmol/L of Tris/HCl, pH 7.4, 80 mmol/L of NaCl), with or without 3 units/well of carbonic anhydrase-1 [=human carbonic anhydrase-1 (Sigma, #C4396)] in order to determine carbonic anhydrase-1 inhibition or 3 units/well of carbonic anhydrase-2 [=human carbonic anhydrase-2 (Sigma, #C6165)] for measuring carbonic anhydrase-2 inhibition, was pipetted into the wells of the microtiter plate.

Series [5] addresses human carbonic anhydrase-2 (Homo sapiens, UniProt P00918). As to the kind of experiment: Carbonic anhydrase assay, carbonic anhydrase-2. It is filed as biochemical. As to conditions: read-out: Inhibition of Carbonic anhydrase-2 IC50. Here is the method:
as §2, §3, §4, §5

Data on one compound can be found in patent US9650340B2, “5-fluoro-N-(pyridin-2-yl)pyridin-2-amine derivatives containing a sulfoximine group” (BAYER PHARMA AKTIENGESELLSCHAFT, priority 2012, dated 2017).

≈ marks a conversion by molar mass, not a printed value.

T1 sequence (P00915 whole entry): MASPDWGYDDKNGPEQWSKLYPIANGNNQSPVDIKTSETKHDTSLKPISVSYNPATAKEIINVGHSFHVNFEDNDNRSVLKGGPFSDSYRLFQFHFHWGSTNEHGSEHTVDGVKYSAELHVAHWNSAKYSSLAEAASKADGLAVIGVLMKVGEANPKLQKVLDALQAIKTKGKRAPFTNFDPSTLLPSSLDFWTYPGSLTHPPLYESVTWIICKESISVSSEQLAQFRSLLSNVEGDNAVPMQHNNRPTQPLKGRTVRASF

What is called solubility is how much of the substance goes into solution per volume. What is called Papp A→B is how fast a substance crosses the layer from the apical side. For orientation: Papp B→A means the apparent permeability from the basolateral to the apical side of a cell layer. A word on the IC50: it is the midpoint of a concentration-inhibition curve. Consider `COc1cc(F)ccc1-c1cc(Nc2cc(CS(C)(=N)=O)ccn2)ncc1F` (racemic) [Example 1, (rac)-5-Fluoro-4-(4-fluoro-2-methoxyphenyl)-N-{4-[(S-methylsulfonimidoyl)methyl]pyridin-2-yl}pyridin-2-amine], for which the solubility at 24 h came to 13 µg/mL (≈ 32.1 µM) in series [1] and 489 µg/mL (≈ 1210 µM) in series [2]. Further, in series [3] (apical to basolateral, read-out: Papp A-B (Mari)), the Papp A→B at 2 h, 2 µM was found to be 15.5 ×10⁻⁶ cm/s. Further, the Papp B→A at 2 h, 2 µM in series [3] (basolateral to apical, read-out: Papp B-A (Mari)) was determined as 18 ×10⁻⁶ cm/s. The IC50 in series [4] and in series [5] was > 10 µM in each case.
